Reference: patent US11560596B2, “Method for expecting and diagnosing UQCRB-related disease” (Industry-Academic Cooperation Foundation, Yonsei University, priority 2015, dated 2023)

Test system: UQCRB mutant cell strains MT1 and MT2
Assay: MTT colorimetric assay of cell growth after treatment with cholesterol synthesis inhibitors
Assay type: cell-based
Conditions: FIGS. 11 to 13
Text: FIG. 11 represents MTT colorimetric assay showing the cell growth of HEK293, MT1, and MT2 cells treated with a cholesterol inhibitor.
FIG. 12 represents MTT colorimetric assay showing the cell growth of HEK293, MT1, and MT2 cells treated with a cholesterol inhibitor.
FIG. 13 represents MTT colorimetric assay showing the cell growth of HEK293, MT1, and MT2 cells treated with a cholesterol inhibitor.
For the purpose of verifying validity for selection of cholesterol metabolic process as a pathway in which UQCRB was participated, a cholesterol synthesis inhibitor was processed in UQCRB mutant cell strains to measure an effect that the cholesterol synthesis inhibitor affects growth of the UQCRB mutant cell strains, and the result thereof was shown in FIGS. 11 to 13.

CC[C@H](C)C(=O)O[C@H]1CCC=C2C=C[C@H](C)[C@H](CC[C@@H]3C[C@@H](O)CC(=O)O3)[C@H]21 [Mevastatin]
growth of the UQCRB mutant cell strains MT1 and MT2: inhibited

F/C(COc1ccc2c(c1)[nH]c1ccccc12)=C1/CN2CCC1CC2 [YM-53601]
growth of the UQCRB mutant cell strains MT1 and MT2: inhibited
